Results reported in paper PMC4376459, “CXCR3 antagonist VUF10085 binds to an intrahelical site distinct from that of the broad spectrum antagonist TAK-779” (British Journal of Pharmacology, 2015).
Substitutions are numbered along the chain they refer to.

What was measured:
CXCR3 Y271A = biological target: T1, CXCR3 Y271A (Homo sapiens, UniProt P49682, Y271A); assay: Chemotaxis assay, L1.2 transfectants migrating to CXCL11; assay type: cell-based
T1 construct: expressed in transfected cells; host or cells: murine pre-B cell line L1.2, transient transfection
T1 sequence (P49682 1-368 Y271A): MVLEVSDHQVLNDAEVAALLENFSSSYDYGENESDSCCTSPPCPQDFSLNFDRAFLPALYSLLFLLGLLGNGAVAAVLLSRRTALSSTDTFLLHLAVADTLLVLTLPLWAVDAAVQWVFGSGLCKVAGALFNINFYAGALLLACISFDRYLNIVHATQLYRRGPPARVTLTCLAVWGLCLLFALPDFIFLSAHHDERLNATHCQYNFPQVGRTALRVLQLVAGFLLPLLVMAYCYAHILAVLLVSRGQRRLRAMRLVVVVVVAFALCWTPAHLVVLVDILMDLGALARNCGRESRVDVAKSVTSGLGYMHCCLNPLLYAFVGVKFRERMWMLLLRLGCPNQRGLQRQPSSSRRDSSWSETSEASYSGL
Experimental: A previously described pcDNA3 plasmid containing human wild type (WT) CXCR3 cDNA with an HA epitope tag encoded at the N terminus (Meiser et al., [2008]) was used as a template for the generation of point mutants by PCR using the QuikChange II site-directed mutagenesis kit (Stratagene, Amsterdam, the Netherlands). All constructs were verified by DNA sequencing (Eurofins MWG Operon, Ebersberg, Germany) before use. L1.2 cells were transiently transfected by electroporation with 1 μg of vector DNA/10^6 cells at 330V, 975μF and incubated overnight in medium supplemented with 10 mM of sodium butyrate to enhance gene expression.
Assays of chemotactic responsiveness were carried out as previously described (Vaidehi et al., [2009]) using 96-well ChemoTx® plates with 5 μm pores (Neuroprobe, Gaithersburg, MD, USA). Migrating cells were detected by the use of CellTiter Glo® Dye (Promega, Southampton, UK) and resulting luminescence measured using a TopCount scintillation counter (PerkinElmer, Waltham, MA, USA). Basal migration of cells to buffer alone was subtracted from the resulting data, with individual results expressed as a percentage of the total cells applied to the filter. In all experiments, each data point was assayed in duplicate. In every experiment, cells transiently expressing WT CXCR3 were used as a positive control.

CXCR3 F131A = biological target: T2, CXCR3 F131A (Homo sapiens, UniProt P49682, F131A); assay: Whole-cell 125I-CXCL11 binding assay, L1.2 transfectants; details: 0.1 nM 125I-CXCL11, read-out: IC50 ligand binding (mean ± SEM)
T2 construct: expressed in transfected cells; host or cells: murine pre-B cell line L1.2, transient transfection
T2 sequence (P49682 1-368 F131A): T1 sequence (P49682 1-368 Y271A) with F131A, A271Y

CXCR3 Y308A [1] = biological target: T3, CXCR3 Y308A (Homo sapiens, UniProt P49682, Y308A); assay: Chemotaxis assay, L1.2 transfectants migrating to CXCL11; assay type: cell-based; details: 30 nM CXCL11
T3 construct: expressed in transfected cells; host or cells: murine pre-B cell line L1.2, transient transfection
T3 sequence (P49682 1-368 Y308A): T1 sequence (P49682 1-368 Y271A) with A271Y, Y308A

WT CXCR3 = biological target: T4, WT CXCR3 (Homo sapiens, UniProt P49682); assay: Whole-cell 125I-CXCL11 binding assay, L1.2 transfectants; details: WT CXCR3 transfectants (Figure 1); read-out: IC50 for displacement of 125I-CXCL11
T4 construct: expressed in transfected cells; host or cells: murine pre-B cell line L1.2, transient transfection by electroporation
T4 sequence (P49682 1-368): T1 sequence (P49682 1-368 Y271A) with A271Y

CXCR3 Y308A [2] = biological target: T3, CXCR3 Y308A; assay: as above

Row | % of WT chemotaxis to 30 nM CXCL11 (mean ± SEM) (CXCR3 Y271A) | IC50 (CXCR3 F131A) | increase in IC50 value, chemotaxis (CXCR3 Y308A [1]; Y308A versus WT) | IC50 (CXCR3 Y308A [1]; Y308A, read-out: IC50 chemotaxis (mean ± SEM)) | IC50 (WT CXCR3) | reduction in IC50 value, ligand binding (CXCR3 Y308A [2]; Y308A relative to WT) | IC50 (CXCR3 Y308A [2]; Y308A, 0.1 nM 125I-CXCL11, read-out: IC50 ligand binding (mean ± SEM)) | Compound
1 | 1.0 ± 0.6% | – | – | – | – | – | – | CXCL11: recombinant human chemokine, CXCR3 agonist, purchased from PeproTech
2 | – | 23.3 ± 6.57 µM | twofold | 41.4 ± 22.6 µM | 15.6 µM | twofold | 14.2 ± 3 µM | Cc1ccc(-c2ccc3c(c2)C=C(C(=O)Nc2ccc(C[N+](C)(C)C4CCOCC4)cc2)CCC3)cc1.[Cl-] [TAK-779, N,N-dimethyl-N-[4-[[[2-(4-methylphenyl)-6,7-dihydro-5H-benzocyclohepten-8-yl]-carbonyl]amino]benzyl] tetrahydro-2H-pyran-4-aminium chloride]
